biological target: human IDO1 (Homo sapiens, UniProt P14902); experiment: Assessment of human IDO-1 inhibitory activity in HEK cells (human IDO1/HEK293 cells, kynurenine read-out with Ehrlich reagent, absorbance 490 nm); type: cell-based; set-up: expressed in transfected cells; settings: HEK Human IDO-1 cellular assay
In short: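 Kynurenine output from stably IDO1-transfected HEK293 cells (10,000/well, phenol red-free RPMI, 10% FBS) after 20 h compound exposure at 37 °C. The reaction was stopped with 0.2% TCA and heated 30 min at 50 °C, then the supernatant was mixed with Ehrlich reagent and read at 490 nm. IC50 was set against DMSO and a 500 nM reference standard as 0 and 100% inhibition.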

human IDO1, sequence (P14902 whole entry): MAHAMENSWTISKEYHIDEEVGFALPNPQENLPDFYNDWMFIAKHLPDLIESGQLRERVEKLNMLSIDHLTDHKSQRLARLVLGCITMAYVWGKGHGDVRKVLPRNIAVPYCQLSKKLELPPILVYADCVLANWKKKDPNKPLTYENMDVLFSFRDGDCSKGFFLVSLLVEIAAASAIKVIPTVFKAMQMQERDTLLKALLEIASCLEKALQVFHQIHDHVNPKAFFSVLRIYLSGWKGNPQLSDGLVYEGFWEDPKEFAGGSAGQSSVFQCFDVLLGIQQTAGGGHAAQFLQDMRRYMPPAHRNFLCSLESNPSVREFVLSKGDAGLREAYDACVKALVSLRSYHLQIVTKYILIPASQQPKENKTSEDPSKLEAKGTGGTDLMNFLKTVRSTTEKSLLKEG

Row | IC50 [nM] | Structure (SMILES)
1 | > 50 | CCc1cnc(Nc2cc([C@H](CC)CC(=O)O)ccc2N(CC)C2CCCCC2)nc1 (single isomer, unassigned) [Example 286]
2 | < 5 | CCOc1ncc(Nc2cc([C@H](CC)CC(=O)O)ccc2N(CC)C2CCCCC2)cn1 (single isomer, unassigned) [Example 287]
3 | < 50 | CCc1ccc(Nc2cc([C@H](CC)CC(=O)O)ccc2N(CC)C2CCCCC2)cc1 (single isomer, unassigned) [Example 288]
4 | < 5 | CC[C@H](CC(=O)O)c1ccc(N(CC)C2CCCCC2)c(Nc2ccc(C#N)cc2)c1 (single isomer, unassigned) [Example 289]
5 | < 5 | CC[C@H](CC(=O)O)c1ccc(N(CC)C2CCCCC2)c(Nc2ccc(OC(F)F)cc2)c1 (single isomer, unassigned) [Example 290]
6 | < 5 | CCC(CC(=O)O)c1ccc(N(CC(C)C)C2CCCCC2)c(Nc2ccc3c(c2)OC(F)(F)O3)c1 (single isomer, unassigned) [Example 299, 3-(4-(Cyclohexyl(isobutyl)amino)-3-((2,2-difluorobenzo[d][1,3]dioxol-5-yl)amino)phenyl)pentanoic acid]
7 | < 50 | CCC(CC(=O)O)c1ccc(N(CC(C)C)C2CCCCC2)c(Nc2ccc3c(c2)OCCO3)c1 (single isomer, unassigned) [Example 301, 3-(4-(cyclohexyl(isobutyl)amino)-3-((2,3-dihydrobenzo[b][1,4]dioxin-6-yl)amino)phenyl) pentanoic acid]
8 | < 5 | CCc1cnc(Nc2cc(C(CC)CC(=O)O)ccc2N(CC(C)C)C2CCCCC2)nc1 (single isomer, unassigned) [Example 302, 3-(4-(cyclohexyl(isobutyl)amino)-3-((5-ethylpyrimidin-2-yl)amino)phenyl)pentanoic acid]
9 | < 5 | CCC(CC(=O)O)c1ccc(N(CC(C)C)C2CCCCC2)c(Nc2ccc(C)cc2)c1 (single isomer, unassigned) [Example 304, 3-(4-(cyclohexyl(isobutyl)amino)-3-(p-tolylamino)phenyl)pentanoic acid]
10 | < 5 | CCC(CC(=O)O)c1ccc(N(CC(C)C)C2CCCCC2)c(Nc2ccc3nc(C)sc3c2)c1 (single isomer, unassigned) [Example 305, 3-(4-(cyclohexyl(isobutyl)amino)-3-((2-methylbenzo [d]thiazol-6-yl)amino)phenyl)pentanoic acid]
11 | < 50 | CCC(CC(=O)O)c1ccc(N(CC(C)C)C2CCCCC2)c(Nc2ccc(Cl)cc2F)c1 (single isomer, unassigned) [Example 307, 3-(3-((4-chloro-2-fluorophenyl)amino)-4-(cyclohexyl(isobutyl)amino)phenyl)pentanoic acid]
12 | < 5 | CCC(CC(=O)O)c1ccc(N(CC(C)C)C2CCCCC2)c(Nc2ccc(Cl)cc2)c1 (single isomer, unassigned) [Example 308, 3-(3-((4-chlorophenyl)amino)-4-(cyclohexyl (isobutyl)amino)phenyl) pentanoic acid]
13 | < 5 | CCc1ccc(Nc2cc(C(CC)CC(=O)O)ccc2N(CC(C)C)C2CCCCC2)cc1 (single isomer, unassigned) [Example 309, 3-(4-(cyclohexyl(isobutyl)amino)-3-((4-ethylphenyl)amino)phenyl)pentanoic acid]
14 | < 5 | CCC(CC(=O)O)c1ccc(N(CC(C)C)C2CCCCC2)c(Nc2ccc(Cl)c(F)c2)c1 (single isomer, unassigned) [Example 310, 3-(3-((4-chloro-3-fluorophenyl)amino)-4-(cyclohexyl(isobutyl)amino)phenyl)pentanoic acid]
15 | < 5 | CCC(CC(=O)O)c1ccc(N(CC(C)C)C2CCCCC2)c(Nc2ccc(F)cc2)c1 (single isomer, unassigned) [Example 311, 3-(4-(cyclohexyl(isobutyl)amino)-3-((4-fluorophenyl)amino)phenyl)pentanoic acid]
16 | < 5 | CCC(CC(=O)O)c1ccc(N(CC(C)C)C2CCCCC2)c(Nc2ccc(OC(F)(F)F)cc2)c1 (single isomer, unassigned) [Example 312, 3-(4-(cyclohexyl(isobutyl)amino)-3-((4-(trifluoromethoxy)phenyl)amino)phenyl)pentanoic acid]
17 | < 5 | CCOc1ccc(Nc2cc(C(CC)CC(=O)O)ccc2N(CC(C)C)C2CCCCC2)cc1 (single isomer, unassigned) [Example 313, 3-(4-(cyclohexyl(isobutyl)amino)-3-((4-ethoxyphenyl)amino)phenyl)pentanoic acid]
18 | < 5 | CCC(CC(=O)O)c1ccc(N(CC(C)C)C2CCCCC2)c(Nc2ccc(C#N)cc2)c1 (single isomer, unassigned) [Example 314, 3-(3-((4-cyanophenyl)amino)-4-(cyclohexyl (isobutyl)amino)phenyl) pentanoic acid]
19 | > 50 | CCC(CC(=O)O)c1ccc(N(CC(C)C)C2CCCCC2)c(Nc2ccc3c(c2)OC(F)(F)O3)c1 (single isomer, unassigned) [Example 315, 3-(4-(Cyclohexyl(isobutyl)amino)-3-((2,2-difluorobenzo[d][1,3]dioxol-5-yl)amino)phenyl)pentanoic acid]
20 | < 5 | CCC(CC(=O)O)c1ccc(N(CC)C2CCS(=O)(=O)CC2)c(Nc2ccc(C#N)cc2)c1 (single isomer, unassigned) [Example 337, 3-(3-((4-cyanophenyl)amino)-4-((1,1-dioxidotetrahydro-2H-thiopyran-4-yl)(ethyl)amino)phenyl) pentanoic acid]
21 | < 50 | CCN(c1ccc([C@@H](COC)CC(=O)O)cc1Nc1cnc(OC)nc1)C1CCOCC1 (single isomer, unassigned) [Example 350]
22 | < 50 | CCOc1ncc(Nc2cc([C@@H](COC)CC(=O)O)ccc2N(CC)C2CCOCC2)cn1 (single isomer, unassigned) [Example 351]
23 | < 5 | CCN(c1ccc([C@@H](COC)CC(=O)O)cc1Nc1ccc(C)cc1)C1CCOCC1 (single isomer, unassigned) [Example 373]

Row | IC50 [nM] | Structure (SMILES)
24 | < 5 | CCc1ccc(Nc2cc([C@@H](COC)CC(=O)O)ccc2N(CC)C2CCOCC2)cc1 (single isomer, unassigned) [Example 374]
25 | < 5 | CCN(c1ccc([C@@H](COC)CC(=O)O)cc1Nc1ccc(F)cc1)C1CCOCC1 (single isomer, unassigned) [Example 375]
26 | < 5 | CCN(c1ccc([C@@H](COC)CC(=O)O)cc1Nc1ccc(Cl)cc1)C1CCOCC1 (single isomer, unassigned) [Example 376]
27 | < 50 | CCN(c1ccc([C@@H](COC)CC(=O)O)cc1Nc1ccc2nc(C)sc2c1)C1CCOCC1 (single isomer, unassigned) [Example 377]
28 | > 50 | CCN(c1ccc([C@@H](COC)CC(=O)O)cc1Nc1cnc(C)nc1)C1CCOCC1 (single isomer, unassigned) [Example 379]
29 | > 50 | CCN(c1ccc([C@@H](COC)CC(=O)O)cc1NC(=O)Nc1ccc(OC)cc1F)C1CCOCC1 (single isomer, unassigned) [Example 424]
30 | > 50 | CCN(c1ccc([C@@H](COC)CC(=O)O)cc1NC(=O)Nc1ccc(OC(F)F)cc1)C1CCOCC1 (single isomer, unassigned) [Example 425]
31 | > 50 | CCN(c1ccc([C@@H](COC)CC(=O)O)cc1NC(=O)Nc1ccc(OC)nc1)C1CCOCC1 (single isomer, unassigned) [Example 426]
32 | > 50 | CCN(c1ccc([C@@H](COC)CC(=O)O)cc1NC(=O)Nc1cnc(C)nc1)C1CCOCC1 (single isomer, unassigned) [Example 427]
33 | > 50 | CCN(c1ccc([C@@H](COC)CC(=O)O)cc1NC(=O)Nc1cc(C)on1)C1CCOCC1 (single isomer, unassigned) [Example 428]
34 | > 50 | CCN(c1ccc([C@@H](COC)CC(=O)O)cc1NC(=O)Nc1cc(C)no1)C1CCOCC1 (single isomer, unassigned) [Example 429]
35 | > 50 | CCOc1ccc(NC(=O)Nc2cc([C@@H](COC)CC(=O)O)ccc2N(CC)C2CCOCC2)cc1 (single isomer, unassigned) [Example 432]
36 | > 50 | CCN(c1ccc([C@@H](COC)CC(=O)O)cc1NC(=O)Nc1ccc(C)cc1)C1CCOCC1 (single isomer, unassigned) [Example 433]
37 | < 50 | CCN(c1ccc([C@H](COC)CC(=O)O)cc1NC(=O)Nc1ccc(Cl)cc1F)C1CCOCC1 (single isomer, unassigned) [Example 434]
38 | > 50 | CCN(c1ccc([C@H](COC)CC(=O)O)cc1NC(=O)Nc1ccc(OC)cc1F)C1CCOCC1 (single isomer, unassigned) [Example 435]
39 | > 50 | CCN(c1ccc([C@H](COC)CC(=O)O)cc1NC(=O)Nc1ccc(OC(F)F)cc1)C1CCOCC1 (single isomer, unassigned) [Example 436]
40 | > 50 | CCN(c1ccc([C@H](COC)CC(=O)O)cc1NC(=O)Nc1ccc(OC)nc1)C1CCOCC1 (single isomer, unassigned) [Example 437]
41 | > 50 | CCN(c1ccc([C@H](COC)CC(=O)O)cc1NC(=O)Nc1cnc(C)nc1)C1CCOCC1 (single isomer, unassigned) [Example 438]
42 | > 50 | CCN(c1ccc([C@H](COC)CC(=O)O)cc1NC(=O)Nc1cc(C)on1)C1CCOCC1 (single isomer, unassigned) [Example 439]
43 | > 50 | CCN(c1ccc([C@H](COC)CC(=O)O)cc1NC(=O)Nc1cc(C)no1)C1CCOCC1 (single isomer, unassigned) [Example 440]
44 | < 5 | CCC(CC(=O)O)c1ccc(N2C[C@@H]3C[C@H]2CN3C(=O)OC(C)(C)C)c(Nc2ccc(C)cc2)c1 (single isomer, unassigned) [Example 445]
45 | < 50 | CCC(CC(=O)O)c1ccc(N2C[C@@H]3C[C@H]2CN3C(=O)OC(C)(C)C)c(Nc2ccccc2)c1 (single isomer, unassigned) [Example 446]

Reference: patent US9790169B2, “IDO inhibitors” (BRISTOL-MYERS SQUIBB COMPANY, priority 2015, dated 2017)
